One series concerns mice. Nature of the series: Phase 1 maximum tolerated dose (MTD) determination in mice. Format: in vivo. The following applies: male mice; oral gavage; 1,000 mg/kg. Here is the method:
Male mice were randomized and assessed in two phases: 1) for maximum tolerated doses (MTDs) of PrC-210, DzCH2SH, and 2Pip-2PrSH to determine dose levels for the efficacy study and 2) to evaluate the efficacy of the compounds when administered 60±5 minutes prior to exposure to total body irradiation (TBI) at an LD100/30 dose (990 cGy) (Tables 1 and 2).
For Phase 1 or 2, sterile water (vehicle), PrC-210, DzCH2SH, and 2Pip2PrSH were administered at 10 mL/kg calculated based on the most recent body weight via oral gavage. Animals were not fasted prior to administration of the compounds or vehicle. Mice in Phase 1 were administered the dose on Day 1 and mice in Phase 2 were administered the dose 60±5 minutes prior to TBI on Day 0.
All surviving animals were observed once daily for clinical signs (e.g., unusually low or high activity, lethargy, shivering, appearance of fur, bloody and water stool, and other symptoms of moribundity) at 1-2 hours post-irradiation and/or post-dose and once daily on non-dosing days until Day 4 (Phase 1) or Day 30 (Phase 2).
In Phase 1 (Table 1), all animals were normal when observed and all body weights were within normal range. The dose level of 1000 mg/kg was selected for Phase 2.

Series [1] in a line: Hygroscopicity on 10 minute exposure to the atmosphere. Format: physicochemical. To be noted: 10 minute exposure of a small amount to the atmosphere; diHCl salt. Here is the method: In Reaction E: 48 ml of HCl in methanol, 6 eq. (1.25 M solution, Aldrich #17935) was added to a solution of compound V, 3.5 g, 0.010 moles dissolved in 10 ml dry methanol in a flask under argon and equipped for magnetic stirring and the reaction was stirred at room temperature for 24 hours. […] The solution was degassed by gently bubbling argon into the solution for 30 minutes. Concentration (rotary evaporator at ambient temperature) provided a crude oily residue which was triturated with hexane producing a white solid. The hexane was removed (via pipette suction) and replaced with dry THF (25 ml). After an additional 10 minutes of trituration, the THF was removed and replaced with dry hexane (25 ml). After an additional 10 minutes of trituration, the hexane was removed and the resulting white solid was dried in vacuo over P2O5 providing 1.95 grams of diHCl salt of PrC-210 (88%). […]
In Reaction P: Compound XVI, 2.2 grams, 0.0058 moles was placed in a round-bottom flask equipped for magnetic stirring followed by 15 mL anhydrous trifluoroacetic acid (CF3COOH, Aldrich #8.08260). The flask was fitted with a condenser and the solution was refluxed for 5 hours whereupon it was determined that the reaction was complete using TLC by observing the disappearance of starting material and the appearance of a highly polar product, which stained positive with ninhydrin. […]

For series [2], the system named is mice exposed to whole body irradiation. Nature of the series: Radiation LD50 in mice after whole body irradiation. The format is in vivo. The following applies: oral gavage 60 minutes prior to whole body irradiation 2-12 Gy, 30 days. Here is the method:
The affect of the compounds according to the disclosure on the dose of radiation required to kill 50% of mice (LD50) is assessed.
Mice are assigned to three groups (Groups 1, 2 and 3). A control group, Group 1, is treated via oral gavage with vehicle (Lactated Ringer's and 5% dextrose, adjusted to pH 7.3 with sodium bicarbonate) 60 minutes prior to whole body irradiation (2 Gy). Group 2 is treated via oral gavage with PrC-210, as a positive control, dissolved in Lactated Ringer's at a dose of 200 mg/kg 60 minutes prior to whole body irradiaton (2 Gy). Group 3 is treated via oral gavage with compound 1 (PrC-210-PT) dissolved in Lactated Ringer's at a dose of 308 mg/kg 60 minutes prior to whole body irradiation (2 Gy). The mortality of the three groups is assessed for 30 days post irradiation.
The experiment is repeated using varying radiation doses of 4, 6, 8, 10 and 12 Gy. The LD50 for each group was determined.
The experiment is repeated to assess compounds 2-23 as radioprotectors.

Structures are written as SMILES.

With `CNCC(CS)CNC` [PrC-210, 3-(methylamino)-2-((methylamino)methyl)propane-1-thiol, reference compound], the “toxicity at the highest tested dose” value in the series on mice is on record as “did not produce any toxicity”. For the same molecule, the hygroscopicity result in series [1] is on record as “did not show any signs of hygroscopicity”. In addition, in series [2], the “radiation LD50 versus control group” value is “control group demonstrates a lower LD50 compared to the mice treated with”.

The values are drawn from patent publication US20230174562A1, “RADIO-AND CHEMO-PROTECTIVE COMPOUNDS” (TONIX PHARMACEUTICALS, INC., priority 2020, published 2023).
